One assay has as its target human CXCR4 (Homo sapiens, UniProt P61073). The experiment in a line: CXCR4/CXCL12 binding, HTRF format, single concentration (Example 23). Details: host or cells: HEK293 (Tag-lite CXCR4 cells, frozen aliquots, transient expression). The note with it: 15 nM CXCR4R fluorescent probe, 3 hours, HEK293 Tag-lite CXCR4 cells. The procedure:
Peptides were initially prepared as 1 mM stock in H2O and tested at a final concentration of 400 nM. Following the manufacture's protocol, a frozen aliquot of Tag-lite CXCR4 cells was thawed and immediately seeded onto 384-well plates in TLB. Immediately following the addition of cells, 400 nM peptide (final concentration) in TLB was added to the appropriate well. Then 15 nM (final concentration; EC80) of CXCR4R fluorescent probe was added to each well to initiate the HTRF assay. The plates were covered in aluminum foil and left at room temperature for 3 hours. Following the 3 hour incubation period, the plates were removed from the incubator and fluorescence measured using a Cytation 1 plate reader using a HTRF filter cube ([…]; BioTek; Winooski, Vt.). According manufacture's instruction data reduction was performed by calculating the ratio of 665 nm signal (TRF of 665 nm excitation by 620 emission; amount of CXCR4R fluorescent probe bound to terbium labeled CXCR receptor)/620 nm signal (620 excitation by 330 nm light source; normalization factor for amount of terbium labeled CXCR4 receptor in well)×10,000.

The test system of assay [1] is CXCR4/CXCL12 induced p-MEK. Description: CXCR4/CXCL12 induced p-MEK in Jurkat cells (ELISA). In kind it is cell-based, human. The note with it: 5 nM CXCL12, 5 min. The procedure:
The assay was performed following a protocol similar to that described by Peng, et al., Mol Cancer Ther., 14 480-90 (2015), incorporated herein by reference. […] Jurkat cells were resuspended in standard growth media (RPMI+GlutaMax media; Gibco/Thermo Fisher Scientific; Gaithersburg, Md.) containing 10% FBS and 1% penicillin/streptomycin. Assays were performed using fresh or conditioned media (media cultured overnight in presence of Jurkat cells) to resuspend cells at density of 2×10^6 cells/ml and […] of cell suspension was immediately placed in 1.7 ml microfuge tubes. […] Following the 5 min incubation, cells were centrifuged at 1000×g for 4 min at 4° C. The supernatant was removed and the cells were rinsed with 1 ml of HBSS containing calcium and magnesium. The HBSS was removed and the cells were immediately lysed in 150 l of lysis buffer included with Phospho-MEK1 (Ser217/221) Sandwich ELISA kit (Cell Signaling Technology; Danvers, Mass.); lysis buffer was supplemented with 1 m M PMSF (Millipore-Sigma; Saint Louis, Mo.) and Halt protease/phosphatase inhibitor cocktail (Thermo-Fisher; Waltham, Mass.) prior to use. The samples were then placed on ice for 10 min and vortexed periodically. Following the lysis step, the samples were centrifuged at 12,500 rpm for 10 min at 4° C. p-MEK expression in each of the samples was then measure using Phospho-MEK1 (Ser217/221) Sandwich ELISA kit according to manufacturer's instructions. Absorbance was measured using a Cytation 3 plate reader at […] (BioTek; Winooski, Vt.).

We go through 9 compounds from patent publication US20220395553A1, “CXCR4 ANTAGONIST PEPTIDES” (COHBAR, INC., priority 2019, published 2022).

Square brackets hold non-standard residues; d marks the D form. Peptide text beside a SMILES is read from it.

human CXCR4, sequence (P61073 whole entry): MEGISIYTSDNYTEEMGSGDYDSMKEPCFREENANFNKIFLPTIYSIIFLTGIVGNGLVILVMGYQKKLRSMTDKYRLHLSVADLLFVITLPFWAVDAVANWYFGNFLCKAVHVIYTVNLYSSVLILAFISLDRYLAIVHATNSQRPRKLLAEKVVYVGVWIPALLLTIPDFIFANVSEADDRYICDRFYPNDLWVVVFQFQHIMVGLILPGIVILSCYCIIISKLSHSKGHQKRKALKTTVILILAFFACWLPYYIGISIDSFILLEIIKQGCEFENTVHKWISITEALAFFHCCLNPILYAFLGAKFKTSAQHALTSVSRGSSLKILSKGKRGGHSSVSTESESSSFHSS

On to `CC(C)C[C@H](NC(=O)[C@H](CO)NC(=O)[C@H](CO)NC(=O)[C@H](CCCNC(=N)N)NC(=O)[C@@H](C)NC(=O)[C@H](CO)NC(=O)[C@H](Cc1c[nH]cn1)NC(=O)[C@H](Cc1c[nH]cn1)NC(=O)[C@H](Cc1ccc(O)cc1)NC(=O)[C@H](CCCNC(=N)N)NC(=O)[C@H](CCC(=O)O)NC(=O)[C@@H](C)N)C(=O)N[C@@H](CCCNC(=N)N)C(=O)N1CCC[C@H]1C(=O)N[C@@H](Cc1ccc(O)cc1)C(=O)N[C@H](C(=O)N[C@@H](CCCCN)C(=O)O)[C@@H](C)O` [compound 35] (H-[dA]ERYHHS[dA]RSSLRPYTK-OH; N-terminus and C-terminus assumed), for which the “Percent Inhibition of CXCR4/CXCL12 Binding (400 nM peptide)” value on human CXCR4 was −13%. Also, in assay [1], the “Percent Inhibition of CXCR4/CXCL12 Induced p-MEK (100 nM Test Article)” value is given as −7% and the “Percent Inhibition of CXCR4/CXCL12 Induced p-MEK (1 μM Test Article)” value is reported as −6%.

As to `CC(C)C[C@H](NC(=O)[C@H](CO)NC(=O)[C@H](CO)NC(=O)[C@H](CCCNC(=N)N)NC(=O)[C@@H](C)NC(=O)[C@H](CO)NC(=O)[C@H](Cc1c[nH]cn1)NC(=O)[C@H](CCC(N)=O)NC(=O)[C@H](Cc1ccc(O)cc1)NC(=O)[C@H](CCCNC(=N)N)NC(=O)[C@H](CCC(=O)O)NC(=O)[C@@H](N)CC(C)C)C(=O)N[C@@H](CCCNC(=N)N)C(=O)N1CCC[C@H]1C(=O)N[C@@H](Cc1ccc(O)cc1)C(=O)N[C@H](C(=O)N[C@@H](CCCCN)C(=O)O)[C@@H](C)O` [compound 49] (H-LERYQHS[dA]RSSLRPYTK-OH; N-terminus and C-terminus assumed), the “Percent Inhibition of CXCR4/CXCL12 Binding (400 nM peptide)” value at human CXCR4 came out at 20%.

On to `CC(C)C[C@H](NC(=O)[C@H](CO)NC(=O)[C@H](CO)NC(=O)[C@H](CCCNC(=N)N)NC(=O)[C@@H](NC(=O)[C@H](CO)NC(=O)[C@H](CCC(N)=O)NC(=O)[C@H](Cc1c[nH]cn1)NC(=O)[C@H](Cc1ccc(O)cc1)NC(=O)[C@H](CCCNC(=N)N)NC(=O)[C@H](CCC(=O)O)NC(=O)[C@@H](N)CC(C)C)C(C)C)C(=O)N[C@@H](CCCNC(=N)N)C(=O)N1CCC[C@H]1C(=O)N[C@@H](Cc1ccc(O)cc1)C(=O)N[C@H](C(=O)N[C@@H](CCCCN)C(=O)O)[C@@H](C)O` [compound 51] (H-LERYHQSVRSSLRPYTK-OH; N-terminus and C-terminus assumed), for which the “Percent Inhibition of CXCR4/CXCL12 Binding (400 nM peptide)” value on human CXCR4 is listed as −2%.

Regarding `CC(C)C[C@H](NC(=O)[C@H](CO)NC(=O)[C@H](CO)NC(=O)[C@H](CCC(=O)O)NC(=O)[C@@H](NC(=O)[C@H](CO)NC(=O)[C@H](Cc1c[nH]cn1)NC(=O)[C@H](Cc1c[nH]cn1)NC(=O)[C@H](Cc1ccc(O)cc1)NC(=O)[C@H](CCCNC(=N)N)NC(=O)[C@H](CCCNC(=N)N)NC(=O)[C@@H](N)CC(C)C)C(C)C)C(=O)N[C@@H](CCCNC(=N)N)C(=O)N1CCC[C@H]1C(=O)N[C@@H](Cc1ccc(O)cc1)C(=O)N[C@H](C(=O)N[C@@H](CCCCN)C(=O)O)[C@@H](C)O` [compound 62] (H-LRRYHHSVESSLRPYTK-OH; N-terminus and C-terminus assumed), the “Percent Inhibition of CXCR4/CXCL12 Binding (400 nM peptide)” value at human CXCR4 is 4%.

Regarding `CC(C)C[C@H](NC(=O)[C@H](CO)NC(=O)[C@H](CO)NC(=O)[C@H](CCCNC(=N)N)NC(=O)[C@@H](C)NC(=O)[C@H](CO)NC(=O)[C@H](Cc1c[nH]cn1)NC(=O)[C@H](Cc1c[nH]cn1)NC(=O)[C@H](Cc1ccc(O)cc1)NC(=O)[C@H](CCCNC(=N)N)NC(=O)[C@H](CCCNC(=N)N)NC(=O)[C@@H](N)CC(C)C)C(=O)N[C@@H](CCC(=O)O)C(=O)N1CCC[C@H]1C(=O)N[C@@H](Cc1ccc(O)cc1)C(=O)N[C@H](C(=O)N[C@@H](CCCCN)C(=O)O)[C@@H](C)O` [compound 65] (H-LRRYHHS[dA]RSSLEPYTK-OH; N-terminus and C-terminus assumed), the “Percent Inhibition of CXCR4/CXCL12 Binding (400 nM peptide)” value on human CXCR4 is listed as −5%.

Regarding `CC(C)C[C@H](NC(=O)[C@H](CO)NC(=O)[C@H](CO)NC(=O)[C@H](CC(=O)O)NC(=O)[C@@H](NC(=O)[C@H](CO)NC(=O)[C@H](Cc1c[nH]cn1)NC(=O)[C@H](Cc1c[nH]cn1)NC(=O)[C@H](Cc1ccc(O)cc1)NC(=O)[C@H](CCCNC(=N)N)NC(=O)[C@H](CCCNC(=N)N)NC(=O)[C@@H](N)CC(C)C)C(C)C)C(=O)N[C@@H](CCCNC(=N)N)C(=O)N1CCC[C@H]1C(=O)N[C@@H](Cc1ccc(O)cc1)C(=O)N[C@H](C(=O)N[C@@H](CCCCN)C(=O)O)[C@@H](C)O` [compound 66] (H-LRRYHHSVDSSLRPYTK-OH; N-terminus and C-terminus assumed), the “Percent Inhibition of CXCR4/CXCL12 Binding (400 nM peptide)” value on human CXCR4 is listed as −5%. In assay [1], the “Percent Inhibition of CXCR4/CXCL12 Induced p-MEK (100 nM Test Article)” value was −7% and the “Percent Inhibition of CXCR4/CXCL12 Induced p-MEK (1 μM Test Article)” value was 13%.

Take `CC(C)C[C@H](NC(=O)[C@H](CO)NC(=O)[C@H](CO)NC(=O)[C@H](CC(=O)O)NC(=O)[C@@H](C)NC(=O)[C@H](CO)NC(=O)[C@H](Cc1c[nH]cn1)NC(=O)[C@H](Cc1c[nH]cn1)NC(=O)[C@H](Cc1ccc(O)cc1)NC(=O)[C@H](CCCNC(=N)N)NC(=O)[C@H](CCCNC(=N)N)NC(=O)[C@@H](N)CC(C)C)C(=O)N[C@@H](CCCNC(=N)N)C(=O)N1CCC[C@H]1C(=O)N[C@@H](Cc1ccc(O)cc1)C(=O)N[C@H](C(=O)N[C@@H](CCCCN)C(=O)O)[C@@H](C)O` [compound 68] (H-LRRYHHS[dA]DSSLRPYTK-OH; N-terminus and C-terminus assumed): the “Percent Inhibition of CXCR4/CXCL12 Binding (400 nM peptide)” value at human CXCR4 was −10%.

As to `CC(C)C[C@H](NC(=O)[C@H](CO)NC(=O)[C@H](CO)NC(=O)[C@H](CCCNC(=N)N)NC(=O)[C@@H](C)NC(=O)[C@H](CO)NC(=O)[C@H](Cc1c[nH]cn1)NC(=O)[C@H](Cc1c[nH]cn1)NC(=O)[C@H](Cc1ccc(O)cc1)NC(=O)[C@H](CCCNC(=N)N)NC(=O)[C@H](CCCNC(=N)N)NC(=O)[C@@H](N)CC(C)C)C(=O)N[C@@H](CC(=O)O)C(=O)N1CCC[C@H]1C(=O)N[C@@H](Cc1ccc(O)cc1)C(=O)N[C@H](C(=O)N[C@@H](CCCCN)C(=O)O)[C@@H](C)O` [compound 69] (H-LRRYHHS[dA]RSSLDPYTK-OH; N-terminus and C-terminus assumed), at human CXCR4, the “Percent Inhibition of CXCR4/CXCL12 Binding (400 nM peptide)” value is listed as −5%.

Regarding `CC(C)C[C@H](NC(=O)[C@H](CO)NC(=O)[C@H](CO)NC(=O)[C@H](CCCNC(=N)N)NC(=O)[C@@H](C)NC(=O)[C@H](CO)NC(=O)[C@H](Cc1c[nH]cn1)NC(=O)[C@H](Cc1c[nH]cn1)NC(=O)[C@H](Cc1ccc(O)cc1)NC(=O)[C@H](CCCNC(=N)N)NC(=O)[C@H](CCC(=O)O)NC(=O)[C@@H](N)CC(C)C)C(=O)N[C@@H](CCCNC(=N)N)C(=O)N1CCC[C@H]1C(=O)N[C@@H](Cc1ccc(O)cc1)C(=O)N[C@@H](CO)C(=O)N[C@@H](CCCCN)C(=O)O` [compound 78] (H-LERYHHS[dA]RSSLRPYSK-OH; N-terminus and C-terminus assumed), the “Percent Inhibition of CXCR4/CXCL12 Binding (400 nM peptide)” value on human CXCR4 was determined as 72%. Moreover, in assay [1], the “Percent Inhibition of CXCR4/CXCL12 Induced p-MEK (100 nM Test Article)” value worked out at 29% and the “Percent Inhibition of CXCR4/CXCL12 Induced p-MEK (1 μM Test Article)” value came to 46%.
